According to patent US9815864B2, “Substituted nucleosides, nucleotides and analogs thereof” (Alios BioPharma, Inc., priority 2013, dated 2017):
pIC50: −log10 of the molar value.

These compounds were tested against Norovirus polymerase (NoVpol, genotype II) (Lordsdale virus, UniProt P54634) (assay: biochemical). Settings: not given.
Sequence of Norovirus polymerase (NoVpol, genotype II) (P54634 1190-1699 limits assumed): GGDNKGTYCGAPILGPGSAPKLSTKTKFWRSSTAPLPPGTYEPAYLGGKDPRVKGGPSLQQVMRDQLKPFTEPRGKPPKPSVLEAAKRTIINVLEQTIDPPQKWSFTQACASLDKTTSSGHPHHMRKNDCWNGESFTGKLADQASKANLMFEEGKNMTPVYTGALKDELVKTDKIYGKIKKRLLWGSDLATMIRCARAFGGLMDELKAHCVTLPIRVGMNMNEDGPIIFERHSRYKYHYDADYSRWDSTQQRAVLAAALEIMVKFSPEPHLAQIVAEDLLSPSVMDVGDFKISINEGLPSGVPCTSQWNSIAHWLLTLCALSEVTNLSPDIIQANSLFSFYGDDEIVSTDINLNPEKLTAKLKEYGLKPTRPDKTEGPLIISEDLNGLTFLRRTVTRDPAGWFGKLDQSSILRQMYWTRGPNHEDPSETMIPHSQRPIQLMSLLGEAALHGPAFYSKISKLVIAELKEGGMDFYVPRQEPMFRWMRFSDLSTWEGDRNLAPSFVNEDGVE
With `CC[C@]1(COP(=O)(O)OP(=O)(O)OP(=O)(O)O)O[C@@H](n2ccc(=O)[nH]c2=O)[C@H](F)[C@@H]1O` [Compound 37a] the pIC50 was 5.00 to 6.00.
Compound `C[C@]1(O)C(n2ccc(=O)[nH]c2=O)O[C@H](COP(=O)(O)OP(=O)(O)OP(=O)(O)O)[C@H]1O` (stereo partly shown) [Compound 260a] has a pIC50 of 5.00 to 6.00.
With `Nc1ccn([C@@H]2O[C@](CF)(COP(=O)(O)OP(=O)(O)OP(=O)(O)O)[C@@H](O)[C@H]2F)c(=O)n1` [Compound 56c] the pIC50 was > 6.00.

Same assay, conditions: 50 nM recombinant enzyme, 2.5 hours at 30° C.; read-out: IC50
In the case of `C[C@]1(F)[C@H](n2cnc3c(=O)[nH]c(N)nc32)O[C@](F)(COP(=O)(O)OP(=O)(O)OP(=O)(O)O)[C@H]1O` [Compound 214a], the pIC50 was > 6.00.
For `C#C[C@]1(COP(=O)(O)OP(=O)(O)OP(=O)(O)O)O[C@@H](n2cnc3c(=O)[nH]c(N)nc32)[C@H](F)[C@@H]1O` [Compound 34b], the pIC50 was > 6.00.
Compound `C[C@]1(O)[C@H](n2cnc3c(N)ncnc32)O[C@](F)(COP(=O)(O)OP(=O)(O)OP(=O)(O)O)[C@H]1O` [Compound 333a] has a pIC50 of 5.00 to 6.00.
Compound `C=C[C@]1(COP(=O)(O)OP(=O)(O)OP(=O)(O)O)O[C@@H](n2ccc(N)nc2=O)C(F)(F)[C@@H]1O` [Compound 224a] has a pIC50 of 5.00 to 6.00.
For `C#C[C@@]1(n2cnc3c(=O)[nH]c(N)nc32)O[C@H](COP(=O)(O)OP(=O)(O)OP(=O)(O)O)[C@@H](O)[C@H]1F` [Compound 335a], the pIC50 was 5.00 to 6.00.
Compound `O=c1ccn([C@@H]2O[C@](CF)(COP(=O)(O)OP(=O)(O)OP(=O)(O)O)[C@@H](O)[C@]2(O)CF)c(=O)[nH]1` [Compound 353a] has a pIC50 of 5.00 to 6.00.
In the case of `Nc1ccn([C@@H]2O[C@](CF)(COP(=O)(O)OP(=O)(O)OP(=O)(O)O)[C@@H](O)[C@]2(O)CF)c(=O)n1` [Compound 355a], the pIC50 was > 6.00.
With `O=c1ccn([C@@H]2O[C@](CCl)(COP(=O)(O)OP(=O)(O)OP(=O)(O)O)[C@@H](O)C2(F)F)c(=O)[nH]1` [Compound 222a] the pIC50 was 4.00 to 5.00.
`C#C[C@@]1(O)[C@H](O)[C@@H](COP(=O)(O)OP(=O)(O)OP(=O)(O)O)O[C@H]1n1cnc2c(N)ncnc21` [Compound 289a] was tested, and the pIC50 was > 6.00.
`C[C@@]1(Cl)[C@H](O)[C@@H](COP(=O)(O)OP(=O)(O)OP(=O)(O)O)O[C@H]1n1cnc2c(=O)[nH]c(N)nc21` [Compound 343a] was tested, and the pIC50 was > 6.00.
Compound `O=c1ccn([C@@H]2O[C@](CCl)(COP(=O)(O)OP(=O)(O)OP(=O)(O)O)[C@@H](O)[C@H]2F)c(=O)[nH]1` [Compound 56a] has a pIC50 of 5.00 to 6.00.
For `N#C[C@@]1(n2ccc(N)nc2=O)O[C@](CF)(COP(=O)(O)OP(=O)(O)OP(=O)(O)O)[C@@H](O)[C@H]1O` [Compound 332a], the pIC50 was > 6.00.
`[N-]=[N+]=NC[C@]1(COP(=O)(O)OP(=O)(O)OP(=O)(O)O)O[C@@H](n2ccc(N)nc2=O)[C@H](F)[C@@H]1O` [Compound 115a] was tested, and the pIC50 was 5.00 to 6.00.
With `CCC[C@]1(CO)O[C@@H](n2ccc(N)nc2=O)[C@H](F)[C@@H]1O` [Compound 21a] the pIC50 was 5.00 to 6.00.
In the case of `C#C[C@@]1(O)[C@H](O)[C@@](CF)(COP(=O)(O)OP(=O)(O)OP(=O)(O)O)O[C@H]1n1ccc(=O)[nH]c1=O` [Compound 219a], the pIC50 was > 6.00.
In the case of `C=C[C@]1(COP(=O)(O)OP(=O)(O)OP(=O)(O)O)O[C@@H](n2ccc(=O)[nH]c2=O)C(F)(F)[C@@H]1O` [Compound 221a], the pIC50 was 5.00 to 6.00.
`Nc1ncnc2c1ncn2[C@@H]1O[C@](CF)(COP(=O)(O)OP(=O)(O)OP(=O)(O)O)[C@@H](O)[C@H]1F` [Compound 98c] was tested, and the pIC50 was > 6.00.
In the case of `Nc1ccn([C@@H]2O[C@@](COP(=O)(O)OP(=O)(O)OP(=O)(O)O)(CC(F)F)[C@@H](O)[C@H]2F)c(=O)n1` [Compound 272a], the pIC50 was 5.00 to 6.00.
With `CC#C[C@@]1(O)[C@H](O)[C@@](CF)(COP(=O)(O)OP(=O)(O)OP(=O)(O)O)O[C@H]1n1ccc(=O)[nH]c1=O` [Compound 349a] the pIC50 was > 6.00.
With `N#C[C@@]1(n2ccc(=O)[nH]c2=O)O[C@](CF)(COP(=O)(O)OP(=O)(O)OP(=O)(O)O)[C@@H](O)[C@H]1O` [Compound 331a] the pIC50 was > 6.00.
For `Nc1ccn([C@@H]2O[C@](CF)(COP(=O)(O)OP(=O)(O)OP(=O)(O)O)[C@@H](O)C2(F)F)c(=O)n1` [Compound 227a], the pIC50 was 5.00 to 6.00.
For `C[C@@]1(Cl)[C@H](O)[C@@](CF)(COP(=O)(O)OP(=O)(O)OP(=O)(O)O)O[C@H]1n1ccc(=O)[nH]c1=O` [Compound 306a], the pIC50 was 4.00 to 5.00.
`C[C@@]1(O)[C@H](O)[C@@](CF)(COP(=O)(O)OP(=O)(O)OP(=O)(O)O)O[C@H]1n1ccc(N)nc1=O` [Compound 354a] was tested, and the pIC50 was > 6.00.
For `O=c1[nH]cnc2c1ncn2[C@@H]1O[C@](CCl)(COP(=O)(O)OP(=O)(O)OP(=O)(O)O)[C@@H](O)[C@H]1F` [Compound 98b], the pIC50 was 5.00 to 6.00.
In the case of `Nc1ccn([C@@H]2O[C@@](COP(=O)(O)OP(=O)(O)OP(=O)(O)O)(C(F)F)[C@@H](O)[C@H]2F)c(=O)n1` [Compound 329a], the pIC50 was 5.00 to 6.00.
Work on `CO[C@]1(COP(=O)(O)OP(=O)(O)OP(=O)(O)O)O[C@@H](n2ccc(N)nc2=O)[C@H](F)[C@@H]1O` [Compound 36d] yielded a pIC50 of 5.00 to 6.00.
With `C#C[C@@]1(O)[C@H](O)[C@@](CCl)(COP(=O)(O)OP(=O)(O)OP(=O)(O)O)O[C@H]1n1cnc2c(N)ncnc21` [Compound 342a] the pIC50 was > 6.00.
`C[C@]1(O)[C@H](n2ccc(N)nc2=O)O[C@](F)(COP(=O)(O)OP(=O)(O)OP(=O)(O)O)[C@H]1O` [Compound 238a] was tested, and the pIC50 was > 6.00.
`C[C@]1(O)[C@H](n2ccc(=O)[nH]c2=O)O[C@](F)(COP(=O)(O)OP(=O)(O)OP(=O)(O)O)[C@H]1O` [Compound 122a] was tested, and the pIC50 was 5.00 to 6.00.
With `C#C[C@]1(O)[C@H](n2cnc3c(=O)[nH]c(N)nc32)O[C@](F)(COP(=O)(O)OP(=O)(O)OP(=O)(O)O)[C@H]1F` [Compound 233a] the pIC50 was > 6.00.
For `C[C@]1(O)[C@H](n2cnc3c(=O)[nH]c(N)nc32)O[C@](F)(COP(=O)(O)OP(=O)(O)OP(=O)(O)O)[C@H]1F` [Compound 232a], the pIC50 was > 6.00.
For `[N-]=[N+]=N[C@]1(COP(=O)(O)OP(=O)(O)OP(=O)(O)O)O[C@@H](n2cnc3c(=O)[nH]c(N)nc32)[C@H](O)[C@@H]1O` [Compound 268a], the pIC50 was > 6.00.
In the case of `C[C@]1(O)[C@H](n2ccc(N)nc2=O)O[C@](C)(COP(=O)(O)OP(=O)(O)OP(=O)(O)O)[C@H]1O` [Compound 340a], the pIC50 was 5.00 to 6.00.
`[N-]=[N+]=NC[C@]1(COP(=O)(O)OP(=O)(O)OP(=O)(O)O)O[C@@H](n2cnc3c(N)ncnc32)[C@H](F)[C@@H]1O` [Compound 212a] showed a pIC50 of 5.00 to 6.00.
`N#C[C@]1(COP(=O)(O)OP(=O)(O)OP(=O)(O)O)O[C@@H](n2cnc3c(=O)[nH]c(N)nc32)[C@H](F)[C@@H]1O` [Compound 34e] was tested, and the pIC50 was > 6.00.
With `C[C@@]1(O)[C@H](O)[C@@](CN=[N+]=[N-])(COP(=O)(O)OP(=O)(O)OP(=O)(O)O)O[C@H]1n1ccc(=O)[nH]c1=O` [Compound 346a] the pIC50 was 5.00 to 6.00.
For `O=c1ccn([C@@H]2O[C@](CF)(COP(=O)(O)OP(=O)(O)OP(=O)(O)O)[C@@H](O)[C@H]2F)c(=O)[nH]1` [Compound 111a], the pIC50 was > 6.00.
With `[N-]=[N+]=N[C@]1(COP(=O)(O)OP(=O)(O)OP(=O)(O)O)O[C@@H](n2ccc(=O)[nH]c2=O)[C@H](F)[C@@H]1O` [Compound 267a] the pIC50 was > 6.00.
Compound `C#C[C@]1(COP(=O)(O)OP(=O)(O)OP(=O)(O)O)O[C@@H](n2ccc(N)nc2=O)[C@H](F)[C@@H]1O` [Compound 36c] has a pIC50 of 5.00 to 6.00.
For `C[C@@]1(O)[C@H](O)[C@@](CF)(COP(=O)(O)OP(=O)(O)OP(=O)(O)O)O[C@H]1n1ccc2c(N)ncnc21` [Compound 351a], the pIC50 was > 6.00.
